Results reported in publication PMC3433420 (PLoS ONE, 2012).
Residues, ends and D or L forms follow the SMILES beside them.

Legend:
[1] = molecular target: T1, PLCG1-NC tandem SH2 domains (Homo sapiens, UniProt P19174); assay: FP saturation binding assay; details: Protein PLCG1-NC; FP saturation binding, high-confidence ErbB interactions; mean over replicate hits
T1 construct: the tandem protein was included in our analysis with all internal amino acids linking the domains; 6X His; thioredoxin; made in house; host or cells: E. coli BL21(DE3)pLysS
T1 sequence (P19174 550-756 limits assumed): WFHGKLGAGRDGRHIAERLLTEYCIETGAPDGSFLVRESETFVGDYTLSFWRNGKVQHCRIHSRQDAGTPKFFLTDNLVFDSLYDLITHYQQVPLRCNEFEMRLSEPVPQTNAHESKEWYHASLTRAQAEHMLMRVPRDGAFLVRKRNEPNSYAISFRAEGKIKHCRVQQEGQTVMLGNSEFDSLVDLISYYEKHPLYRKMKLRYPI
Experimental: (See Figure 1A) Rhodamine-labeled peptides were dissolved in assay buffer (20 mM HEPES, 100 mM KCl, 0.1% Tween-20, 5 mM DTT, pH 7.8), diluted to a concentration of 20 nM, and plated into black 384-well plates (Corning, Corning, NY) at 5 µL/well using a Perkin Elmer EP3 pipetting workstation (V&P Scientific, Inc., San Diego, CA). SH2, PTB, and thioredoxin control proteins were plated into the first column of 2 mL 96-well plates (Corning) at a concentration of 20 µM and serially diluted 1∶2 into freezing buffer (300 mM NaCl, 50 mM Na2PO4, pH 8, 20% glycerol v/v) eleven times using a Tecan Freedom EVO 100 workstation (Tecan, Männedorf, Switzerland). For the interaction assay, 5 µL of each of the twelve protein concentrations was added to the peptide-containing 384-well plates via the EP3 resulting in a protein dilution range of 0.002–10 µM and a final volume of 10 µL; peptide concentration was fixed at 10 nM. […] Experimental values were output as millipolarization (mP) units and imported into MATLAB (The MathWorks, Inc., Natick, MA) in which equation (1) was used to determine dissociation constants (KDs) for each protein/peptide pairing by least squares nonlinear regression. [drawing 1] (1)
(§1) FP was described by the following equation: P=Iparallel-IperpendicularIparallel+Iperpendicular, where “P” denotes polarization, and “I” denotes the fluorescent intensity relative to the plane of incident light. Experimental values were output as millipolarization (mP) units and imported into MATLAB where the following equation was used to determine dissociation constants (KDs) for each protein/peptide pairing by least squares nonlinear regression:
(§2) Pobs=Pmax∙ProteinKD+Protein [picture] (1)
Peptides were initially tested for systematic plate effects across protein dilutions and nonspecific binding to thioredoxin by linear regression analysis and any effects were regressed out. The median baseline control polarization value for each plate was then subtracted from each data point to make each binding curve intersect at zero. Plates with excessive variation in baseline control polarizations on both a global and run-specific manner (Dixon’s Q test, p < 0.05) were excluded from further analysis. Outliers in each binding curve were identified and removed using an iterative procedure as follows. The residuals for each fit were used to calculate a global standard deviation of the residuals (GSDR) for each concentration of SH2 domain over all interactions, and individual data points with residuals < or > two GSDR from the global mean residual were flagged as outliers. The outlier with the largest residual from each interaction was removed and nonlinear regression was again performed. This procedure was repeated if additional outliers were identified for an interaction, discarding the interaction if the number of outliers exceeded three. […] In order to further control our false positive rate against hidden confounding variables producing binding artifacts, we sought to determine whether there was a significant relationship between the strength of an interaction and its technical replication rate at our stringent significance and filtering thresholds. We performed logistic regression on the proportion of successful replicates for each interaction query against KD for all interactions (Figure S15A). […] “High-confidence” FP interactions are defined as those having 1 - P(Observed Replication Rate | Expectation) > 0.5 and that have replicated at least twice across independent FP runs. […] The compiled FP data were organized into heatmaps generated by MATLAB and relative binding strength (µM). Peptides without at least one positive hit were classified as “no interaction” if there was no homologous sequence (i.e. identical at the +1 to +4 positions relative to the phosphotyrosine) that produced a positive interaction within the ErbB receptor family.

[2] = molecular target: T2, PIK3R3-N SH2 domain (Homo sapiens, UniProt Q92569); assay: FP saturation binding assay; details: high-confidence ErbB interactions
T2 construct: 6X His; thioredoxin; made in house; host or cells: E. coli BL21(DE3)pLysS
Experimental: (§3) (See Figure 1A) Rhodamine-labeled peptides were dissolved in assay buffer (20 mM HEPES, 100 mM KCl, 0.1% Tween-20, 5 mM DTT, pH 7.8), diluted to a concentration of 20 nM, and plated into black 384-well plates (Corning, Corning, NY) at 5 µL/well using a Perkin Elmer EP3 pipetting workstation (V&P Scientific, Inc., San Diego, CA). SH2, PTB, and thioredoxin control proteins were plated into the first column of 2 mL 96-well plates (Corning) at a concentration of 20 µM and serially diluted 1∶2 into freezing buffer (300 mM NaCl, 50 mM Na2PO4, pH 8, 20% glycerol v/v) eleven times using a Tecan Freedom EVO 100 workstation (Tecan, Männedorf, Switzerland). For the interaction assay, 5 µL of each of the twelve protein concentrations was added to the peptide-containing 384-well plates via the EP3 resulting in a protein dilution range of 0.002–10 µM and a final volume of 10 µL; peptide concentration was fixed at 10 nM. Peptide/protein samples were incubated for 20 minutes at room temperature in the dark and fluorescence polarization (FP) was measured in an Analyst GT multimode reader (Molecular Devices, Sunnyvale, CA) with excitation and emission wavelengths of 530 nm and 555 nm, respectively. Experimental values were output as millipolarization (mP) units and imported into MATLAB (The MathWorks, Inc., Natick, MA) in which equation (1) was used to determine dissociation constants (KDs) for each protein/peptide pairing by least squares nonlinear regression. [drawing 1] (1)
as §1, §2
(§4) Peptides were initially tested for systematic plate effects across protein dilutions and nonspecific binding to thioredoxin by linear regression analysis and any effects were regressed out. The median baseline control polarization value for each plate was then subtracted from each data point to make each binding curve intersect at zero. Plates with excessive variation in baseline control polarizations on both a global and run-specific manner (Dixon’s Q test, p < 0.05) were excluded from further analysis. Outliers in each binding curve were identified and removed using an iterative procedure as follows. The residuals for each fit were used to calculate a global standard deviation of the residuals (GSDR) for each concentration of SH2 domain over all interactions, and individual data points with residuals < or > two GSDR from the global mean residual were flagged as outliers. The outlier with the largest residual from each interaction was removed and nonlinear regression was again performed. This procedure was repeated if additional outliers were identified for an interaction, discarding the interaction if the number of outliers exceeded three. […] In order to further control our false positive rate against hidden confounding variables producing binding artifacts, we sought to determine whether there was a significant relationship between the strength of an interaction and its technical replication rate at our stringent significance and filtering thresholds. We performed logistic regression on the proportion of successful replicates for each interaction query against KD for all interactions (Figure S15A). […] This is related to the observation that the majority of interactions detected by FP are tight (Figure S15B). With this logit model, we assigned a probability to each peptide-protein interaction in our data by using a binomial proportions test to compare the observed versus the expected replication rate at the particular KD of that interaction (Table S4). […]

[3] = molecular target: PIK3R2-NC tandem SH2 domains (Homo sapiens, UniProt O00459); assay: FP saturation binding assay
Chain of PIK3R2-NC tandem SH2 domains (O00459 330-716 limits assumed): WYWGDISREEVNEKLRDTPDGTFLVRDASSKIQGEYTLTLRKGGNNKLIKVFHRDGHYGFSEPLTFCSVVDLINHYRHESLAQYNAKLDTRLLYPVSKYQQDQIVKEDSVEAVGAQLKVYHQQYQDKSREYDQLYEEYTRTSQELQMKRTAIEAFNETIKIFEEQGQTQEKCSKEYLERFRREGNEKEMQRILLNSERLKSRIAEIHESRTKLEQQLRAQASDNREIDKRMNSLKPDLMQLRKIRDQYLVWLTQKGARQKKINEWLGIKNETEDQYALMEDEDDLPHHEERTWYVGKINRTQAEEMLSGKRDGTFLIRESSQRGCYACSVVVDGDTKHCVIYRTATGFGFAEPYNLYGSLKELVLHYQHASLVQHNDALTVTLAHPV

[4] = molecular target: T3, PIK3R3-NC tandem SH2 domains (Homo sapiens, UniProt Q92569); assay: FP saturation binding assay; details: protein PIK3R3-NC; FP, high-confidence ErbB interactions; mean of replicate hits
T3 construct: the tandem protein was included in our analysis with all internal amino acids linking the domains; 6X His; thioredoxin; made in house; host or cells: E. coli BL21(DE3)pLysS
Experimental: as §3, §1, §2, §4

[5] = tested on: 93 human SH2 domains and 2 phosphotyrosine binding (PTB) domains; assay: FP saturation binding assay, whole domain panel (protein named per line or not at all); details: for interaction with the SH2/PTB domain panel: KD <= 20 µM counted as interaction; for SH2 domains found to interact: high-confidence interactions (Table S11, Figure S14)
Experimental: as §3
To scale up the number of interaction measurements while minimizing variation introduced by human intervention, we utilized an automated robotic platform (Figure 1A; see experimental procedures and Supplementary Methods) to transfer, incubate, and measure the fluorescence polarization (FP) induced from interactions of a titration series of SH2 domains with synthetic rhodamine-labeled ErbB phosphopeptides. Experimental values were output as millipolarization (mP) units and equation (1) was used to fit apparent midpoint dissociation constants (KDs) for each protein/peptide pair using non-linear regression (see experimental procedures).
For this interaction analysis, we synthesized and queried the interaction of phosphopeptides corresponding to 89 of 92 ErbB family intracellular tyrosines with 93 SH2 domains. Because nine peptide sequences share 100% identity between the receptors in the 4 to 7 amino acids C-terminal to the phosphorylated tyrosine, our peptide set consisted of 81 phosphopeptides corresponding to the 89 unique tyrosine containing sequences (Table S2). This peptide set represents a 50% increase over the three PM studies performed to date. We were therefore able to obtain a more systematic and unbiased view of the relative SH2 domain recruitment potential of each receptor. Although most ErbB receptor auto-phosphorylation sites have been detected frequently by mass spectrometry because of their high relative modification stoichiometry, non-auto-phosphorylation sites have been reported less frequently in the literature (Table S3). We reasoned that many physiologically relevant and uncharacterized ErbB tyrosines of low phosphorylation stoichiometry may exist and that our comprehensive interaction analysis might implicate their importance in mediating physiological interactions. We tested the majority of interactions (7099/8160 (87.0%); Figure S3) three or more times and reported standard error for all interactions that were detected in at least three FP runs (Table S4). […] Analysis of this polarization data may be useful for inferring how SH2 proteins bind to different peptide sequences. Larger proteins and proteins binding closer to the N-terminal rhodamine tag of a given peptide would be expected to induce higher maximal polarization (the calculated maximal polarization value at infinite protein concentration) than proteins binding farther from the tag. In addition to phosphopeptides, we queried a representative set of 27 non-phosphopeptides against the entire domain set. […]

[6] = molecular target: T4, PIK3R1-N SH2 domain (Homo sapiens, UniProt P27986); assay: biochemical; assay type: binding; details: Protein PIK3R1-N; FP saturation binding, high-confidence ErbB interactions; mean over replicate hits
T4 construct: thioredoxin; made in house; host or cells: E. coli BL21(DE3)pLysS
T4 sequence (P27986 333-428 limits assumed): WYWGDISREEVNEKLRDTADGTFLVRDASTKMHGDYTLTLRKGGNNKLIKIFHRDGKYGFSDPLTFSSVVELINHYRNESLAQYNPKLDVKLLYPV

Molecule | Kd [4] [nM] | interaction with the SH2/PTB domain panel [5] | SH2 domains found to interact [5] | also measured
CC(C)C[C@H](NC(=O)CNC(=O)[C@H](CC(C)C)NC(=O)[C@H](Cc1ccc(OP(=O)(O)O)cc1)NC(=O)[C@H](CCC(=O)O)NC(=O)[C@@H]1CCCN1C(=O)[C@H](CC(N)=O)NC(=O)[C@@H](N)CCC(=O)O)C(=O)N[C@@H](CC(=O)O)C(=O)N[C@H](C(=O)N1CCC[C@H]1C(=O)N[C@H](C(=O)N[C@@H](CC(=O)O)C(=O)O)C(C)C)C(C)C [ErbB2 1248 13-mer] (HELM PEPTIDE1{E.N.P.E.[O=C([C@H](Cc1ccc(OP(=O)(O)O)cc1)N[*:1])[*:2]].L.G.L.D.V.P.V.D}$$$$V2.0) | – | – | – | Kd [1]: 9970 nM; Kd ([2]; Protein PIK3R3-N, FP saturation binding, mean over replicate hits): 11200 nM; Kd [3]: 9900 nM
CSCC[C@H](NC(=O)[C@H](Cc1ccc(O)cc1)NC(=O)[C@H](CCC(=O)O)NC(=O)[C@H](Cc1ccc(OP(=O)(O)O)cc1)NC(=O)[C@H](CCC(=O)O)NC(=O)[C@H](CCC(=O)O)NC(=O)[C@H](CC(=O)O)NC(=O)[C@@H](N)CCC(=O)O)C(=O)N[C@@H](CC(N)=O)C(=O)N[C@@H](CCCNC(=N)N)C(=O)N[C@@H](CCCNC(=N)N)C(=O)N[C@@H](CCCNC(=N)N)C(=O)N[C@@H](CC(=O)O)C(=O)O [ErbB3 1197 13-mer] (HELM PEPTIDE1{E.D.E.E.[O=C([C@H](Cc1ccc(OP(=O)(O)O)cc1)N[*:1])[*:2]].E.Y.M.N.R.R.R.D}$$$$V2.0) | 200 | – | – | Kd ([2]; protein PIK3R3-N, FP, mean of replicate hits): 1320 nM
DAEEpYLVPQAFN [ErbB4 pY1022, N-terminally rhodamine-labeled 13-mer phosphopeptide] | – | did not produce any interaction hits | – | –
KIRKpYTMRRLLQd [ErbB2 pY685, N-terminally rhodamine-labeled 13-mer phosphopeptide] | – | reproducibly interacted at high affinity with many SH2 domains | interacted with SOCS family SH2 domains | –
DVWSpYGVTIWELd [ErbB4 pY906, N-terminally rhodamine-labeled 13-mer phosphopeptide] | – | reproducibly interacted at high affinity with many SH2 domains | interacted with ZAP70, GRB7, and GRB10 SH2 domains | –
CSCC[C@H](NC(=O)[C@@H]1CCCN1C(=O)[C@H](CCSC)NC(=O)[C@H](Cc1ccc(OP(=O)(O)O)cc1)NC(=O)CNC(=O)[C@H](CO)NC(=O)[C@H](CO)NC(=O)[C@@H]1CCCN1)C(=O)N[C@@H](CC(N)=O)C(=O)N[C@@H](CCC(N)=O)C(=O)NCC(=O)N[C@@H](CC(N)=O)C(=O)N[C@@H](CC(=O)O)C(=O)O [ErbB3 1054 13-mer] (HELM PEPTIDE1{P.S.S.G.[O=C([C@H](Cc1ccc(OP(=O)(O)O)cc1)N[*:1])[*:2]].M.P.M.N.Q.G.N.D}$$$$V2.0) | 260 | – | – | Kd [6]: 1800 nM
